Calls of active or inactive are those of the source.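 Rule for the calls: active = cell-killing curve crosses a set limit at a concentration no more than twice the top valid dose; inconclusive = flat curve with a 30 to 70% loss, or a poor fit; inactive = signal rising instead of falling, and the rest.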

This is an account of results in PubChem BioAssay AID720570 (Broad Institute, 2013).

The first test in a line: TC71 Ewing sarcoma cell killing, confirmation, luminescence, cherry-picked samples, retest (AID 720570). The conditions noted are these: TC71 Ewing sarcoma viability, CellTiter-Glo ATP, 72 h; at 23.5 µM (top of the series).
For the compound `COC(=O)C[C@@H]1CC[C@@H]2[C@@H](COc3ccc(NC(=O)Nc4ccccc4C)cc3C(=O)N2C)O1`, the activity change, negative = cytotoxicity was 14.2% (inactive).

Staying with this test, now noted: TC71 Ewing sarcoma viability, CellTiter-Glo ATP, 72 h; at 26 µM (top of the series).
Turning to `COc1ccc(/C=C2\SC(=S)N(CCCC(=O)NNC(=O)c3ccccc3O)C2=O)cc1`, the activity change, negative = cytotoxicity is -6.8% (inactive). On to `O=C(CN1C(=O)C(=O)c2ccccc21)c1ccc(Cl)cc1`, for which the activity change, negative = cytotoxicity is -1.64% (inactive). With `CC1(CCc2ccccc2)NC(=O)N(CC(=O)N2CC(=O)Nc3ccccc32)C1=O` (centres undefined), the activity change, negative = cytotoxicity is 3.37% (inactive).

As to `N#C[C@@H]1[C@H](c2ccc(C#Cc3ccccc3F)cc2)[C@@H](CO)N1C(=O)c1cccnc1`, the activity change, negative = cytotoxicity is 13.1% (inactive). The same measure, in the same setting: then `CN(C)[C@@H]1CCC[C@@H]1OC(=O)C(c1ccccc1)c1ccccc1`, with 10.9% (inactive); and `CC(NC(=O)c1ccco1)c1nc(-c2ccc(C(C)(C)C)cc2)no1` (centres undefined), with -6.69% (inactive). Still for that read-out and setting: then `COc1ccccc1/C=C1\SC(=S)N(CCC(=O)Nc2cc(C)on2)C1=O`, with 6.74% (inactive). On the same count and under the same terms, the figure for `COc1cc(/C=N\Nc2nc(-c3ccc(C)cc3)c(NC(C)=O)s2)ccc1O` is 4.59% (inactive). Turning to `CCOC(=O)Cc1ccc(NC(=O)c2ccccc2Br)cc1`, the activity change, negative = cytotoxicity was 1.04% (inactive). As to `CC1=NC(=O)C(N=Nc2cccc(C(=O)O)c2)N1c1ccccc1` (centres undefined), the activity change, negative = cytotoxicity was 18.2% (inactive).

`COC(=O)C[C@H]1CC[C@H]2[C@H](COc3ccc(NC(=O)Nc4cccc(Cl)c4)cc3C(=O)N2C)O1`: the activity change, negative = cytotoxicity is -2.79% (inactive).

Turning to `O=C(O)c1cccc(N/N=C/c2ccc(OC(F)(F)F)cc2)c1`, the activity change, negative = cytotoxicity was 1.52% (inactive). On the same count and under the same terms, the figure for `Cc1ccc(/C=C2\SC(=S)N(CCC(=O)NNC(=O)c3ccccc3O)C2=O)cc1` is -7.03% (inactive); for `O=C(CNC(c1ccccc1)c1ccccc1)Nc1ccccc1-c1ccccc1` it is 11.2% (inactive). On the same count and under the same terms, then `CCOc1ccc(-c2noc(CCC(=O)O)n2)cc1`, with 14.8% (inactive); and `COc1ccc(Nc2ncnc3ccc(Br)cc23)c(OC)c1`, with 6.89% (inactive). Same read-out and setting: the figure for `COc1ccc(S(=O)(=O)Nc2ccc3c(c2)C(=O)N([C@H](C)CO)C[C@@H](C)[C@@H](CN(C)CC2CCCCC2)OCCCC[C@H](C)O3)cc1` is -1.56% (inactive); for `COc1cc(OC)cc(-c2cc3nc(C)c(CCC(=O)O)c(C)n3n2)c1` it is 13.7% (inactive).

On to `COc1ccc(NS(=O)(=O)c2cc(NC(=O)CNC(=O)c3cccc(OC)c3)ccc2C)cc1`, for which the activity change, negative = cytotoxicity is -0.075% (inactive). On the same count and under the same terms, the figure for `CCOc1ccc(-c2cc(CCCC(=O)NCc3ccc(C)cc3)no2)cc1` is -3.16% (inactive); for `CCCN1C(=O)/C(=C/c2nc3ccccc3c(=O)[nH]2)c2ccccc21` it is 3.09% (inactive); for `O=c1c2ccccc2oc2ccc(C#CC3(O)CCCCC3)cc12` it is -10.3% (inactive). On the same count and under the same terms, the figure for `CN(C)C(=O)c1cccc(-c2ccc(C3[C@@H]4CN(Cc5nccs5)C[C@H]3N4)cc2)c1` (some centres undefined) is 0.197% (inactive). The same measure, in the same setting: then `Cc1noc(C)c1NC(=O)Nc1ccc2c(c1)CC(=O)N([C@@H](C)CO)C[C@@H](C)[C@@H](CN(C)Cc1ccc(Cl)c(Cl)c1)O2`, with -0.95% (inactive); and `Nc1ccc2oc(-c3cc(Br)ccc3Cl)nc2c1`, with -14.7% (inactive); and `CC(=O)Nc1ccc(S(=O)(=O)Nc2ccc(N3CCCCC3)cc2)cc1`, with -4.73% (inactive). On to `COc1ccc(/C=C2\SC(=S)N(CCCC(=O)Nc3ccc(O)cc3)C2=O)cc1`, for which the activity change, negative = cytotoxicity is 0.096% (inactive). Consider `C[C@H]1CN([C@@H](C)CO)C(=O)c2cccc(NC(=O)c3ccc(-c4nccs4)cc3)c2O[C@@H]1CN(C)Cc1ccc(C(=O)Nc2ccccc2N)cc1`, for which the activity change, negative = cytotoxicity is -30.9% (inactive). With `CC(=O)c1ccc(NC(=O)c2noc3c2CCC3)cc1`, the activity change, negative = cytotoxicity was -19.5% (inactive). The same measure, in the same setting: then `CC1=NN(c2ccccc2)C(=O)/C1=C\C=C\c1ccccc1`, with 22.9% (inactive); and `COc1ccccc1N(/N=C1\Sc2ccccc2C1=O)C(C)=O`, with -15.8% (inactive); and `COc1ccc(OC)c(-c2cc(C(F)(F)F)c3c(n2)sc2c(O)cc(=O)[nH]c23)c1`, with -3.31% (inactive). On the same count and under the same terms, the figure for `CCOc1ccccc1CNC(=O)c1ccc(Sc2ccc(Cl)cc2)c(NC(C)=O)c1` is -3.24% (inactive); for `C[C@H](CO)N1C[C@H](C)[C@H](CN(C)Cc2ccc(C(F)(F)F)cc2)Oc2c(NS(=O)(=O)c3ccc(Cl)cc3)cccc2C1=O` it is 46.6% (inactive); for `COC(=O)C[C@@H]1CC[C@@H]2[C@H](COc3ccc(NC(=O)c4ccccc4)cc3C(=O)N2C)O1` it is 7.67% (inactive).

With `C/C(=N\OCc1cccc(C(=O)O)c1)c1ccc(Cl)cc1`, the activity change, negative = cytotoxicity was -12.2% (inactive). The same measure, in the same setting: the figure for `COc1ccc(C(=O)Nc2cccc(C(=O)N/N=C/c3ccc(OC)cc3OC)c2)cc1` is 11.2% (inactive). For the compound `O=C(CN1C(=O)c2ccccc2S1(=O)=O)c1ccc(F)cc1`, the activity change, negative = cytotoxicity was 12.8% (inactive).

In the case of `CC(C)c1oc(=O)cc2c1[C@@H](O)[C@H]1OC(=O)[C@@]3(C)CC[C@@H](O)[C@@]2(C)C13` (some centres undefined), the activity change, negative = cytotoxicity was -18.6% (inactive). The same measure, in the same setting: then `C[C@@H]1CN([C@H](C)CO)C(=O)c2cc(NC(=O)CCCCCC(=O)Nc3ccccc3N)ccc2O[C@H]1CN(C)S(=O)(=O)c1ccc(Cl)cc1`, with -12.6% (inactive); and `COc1ccc(/C=C2\Oc3ccccc3C2=O)cc1`, with -14.5% (inactive); and `CCCCCCN(C(=O)CCCCCN1C(=O)NC(c2ccc(Cl)cc2)C(C(=O)OCc2ccccc2)=C1C)C(C(=O)NCCCC)c1ccc(OCC(=O)OC)c(C(=O)OC)c1` (centres undefined), with 8.62% (inactive).

As for `Cc1ccccc1N=CC1=C(O)c2ccccc2C1=O`, the activity change, negative = cytotoxicity is 20.2% (inactive). `O=C(NC1CCCC1)C(c1ccccc1)n1c(CSCCOc2ccccc2)nc2ccccc21` (centres undefined): the activity change, negative = cytotoxicity was 3.49% (inactive).

In the case of `CCCCOc1ccc(NC(=O)C(=O)NCCCn2ccnc2)cc1`, the activity change, negative = cytotoxicity is -2% (inactive). With `COC(=O)COc1ccc(-c2nccc(-c3ccccn3)n2)cc1`, the activity change, negative = cytotoxicity was 7.95% (inactive). The same measure, in the same setting: the figure for `COCCOC(=O)N1C(=O)[C@@]2(c3cc(C#CCC(C(=O)OC)C(=O)OC)ccc31)[C@H](c1ccccc1OCCO)N1[C@H](c3ccccc3)[C@H](c3ccccc3)OC(=O)[C@H]1[C@@H]2C(=O)N1CCN(c2ncccn2)CC1` is 16.1% (inactive). Same read-out and setting: then `Nc1ccc2c(c1)OC1(CCCC1)O2`, with 25.1% (inactive); and `CCCc1nc2ccc(NC(=O)c3cccs3)cc2c(=O)n1Cc1ccccc1Cl`, with 2.97% (inactive). Same read-out and setting: then `Cc1c(CC(=O)NCCCC(=O)O)c(=O)oc2cc3c(cc12)CCC(C)(C)O3`, with 4.66% (inactive). Regarding `O=C1CCC2S/C(=C/Nc3ccc(C(F)(F)F)cc3)C(=O)N12` (centres undefined), the activity change, negative = cytotoxicity is 11.9% (inactive). Same read-out and setting: the figure for `C[C@@H]1CCCCO[C@H](CN(C)Cc2ccc(C(F)(F)F)cc2)[C@H](C)CN([C@H](C)CO)C(=O)c2cc(NC(=O)CCCN(C)C)ccc2O1` is -2.5% (inactive); for `COc1ccc(S(=O)(=O)N=Nc2c(O)[nH]c3ccccc23)cc1` it is 5.63% (inactive). Same read-out and setting: then `C=C1C(=O)C=C[C@]2(C)C[C@@H]3OC(=O)[C@](C)(O)[C@H]3C[C@@H]12`, with -94.2% (inactive). On the same count and under the same terms, the figure for `CCOC(=O)C1CCCCN1C(=O)CCc1c(C)nc2cc(-c3ccccc3)nn2c1C` (centres undefined) is 11.3% (inactive); for `COc1ccc2oc(-c3ccccc3)cc(=O)c2c1` it is 1.87% (inactive).

With `Cc1cc(C(=O)CN2C(=O)c3ccccc3S2(=O)=O)c(C)n1C(C)C`, the activity change, negative = cytotoxicity is 3.94% (inactive). On the same count and under the same terms, the figure for `O=C(CCCN1C(=O)/C(=C/c2ccccc2Cl)SC1=S)NNC(=O)c1ccc(Cl)cc1` is -7.21% (inactive); for `COC(=O)[C@H]1[C@H](CO)[C@H]2Cn3c(ccc(-c4ccccc4F)c3=O)[C@@H]1N2CC1CCCC1` it is 4.06% (inactive); for `CCCCNC(=O)C(c1ccc(OCC(=O)OC)c(C(=O)OC)c1)N(CCOC)C(=O)CCCCCN1C(=O)NC(c2ccc(-c3ccccc3)cc2)C(C(=O)OCc2ccccc2)=C1C` (centres undefined) it is 19.3% (inactive). With `CCCN(C)C[C@H]1Oc2ncc(-c3ccccc3)cc2C(=O)N([C@@H](C)CO)C[C@H]1C`, the activity change, negative = cytotoxicity was 13% (inactive). Same read-out and setting: the figure for `COc1ccc2cc(C(N)=O)/c(=N\NC(=O)c3ccccc3)oc2c1` is 16.9% (inactive). In the case of `C=C(C(=O)c1ccccc1)C(C(=C)C(=O)c1ccccc1)c1ccc(OC)cc1`, the activity change, negative = cytotoxicity is 10.8% (inactive). In the case of `O=C(Nc1ccc(NC(=O)c2cc3ccccc3o2)cc1)c1ccc2c(c1)OCCO2`, the activity change, negative = cytotoxicity is -3.21% (inactive). Still for that read-out and setting: then `CCCCNC1=CC(=O)C(=O)c2ccccc21`, with 3.77% (inactive); and `Nc1ccc(-c2cc3ccccc3c(=O)o2)cc1`, with 14.9% (inactive); and `CN(C(=O)COC(=O)c1cc(-c2ccccc2Cl)nc2ccccc12)C1CCS(=O)(=O)C1` (centres undefined), with 5.31% (inactive). The same measure, in the same setting: then `COc1ccc(CCC(C)NCC2CCCCC2)cc1` (centres undefined), with 7.46% (inactive).
